Several values for one entry are separate records, joined by “and”; a condition that tells them apart may be missing. Identical values can stand only once. Counter-ions that a name gives are not always drawn. Like-named read-outs stand apart in the source and are kept apart here.
Legend:
[1] = system: erythroid progenitor cells (EPCs); assay: Fetal hemoglobin (HbF) ELISA in day 7 erythroid progenitor cells; assay type: cell-based, human; conditions: Homo sapiens, Erythroid progenitor cell, HbF ELISA, day 7 EPCs, 5 days; read-out: EPC ELISA (pEC50 category) (converted);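 also: for fetal hemoglobin induction normalized to vehicle-treated cells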
Procedure, shortened: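 CD34+-derived EPCs, 1,000 cells/well, rhEPO 3 U/mL; Compound A 22-pt series, […]; 5 d, 37° C, 5% CO2. Freeze-thaw lysis, anti-HbF capture + HRP anti-HbF, TMB, OD450. Normalized to DMSO wells.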

DNMT1 = DNMT1 (Homo sapiens, UniProt P26358); assay: DNMT1 biochemical activity, breaklight assay and/or SPA assay
Chain of DNMT1 (P26358 whole entry, looked up): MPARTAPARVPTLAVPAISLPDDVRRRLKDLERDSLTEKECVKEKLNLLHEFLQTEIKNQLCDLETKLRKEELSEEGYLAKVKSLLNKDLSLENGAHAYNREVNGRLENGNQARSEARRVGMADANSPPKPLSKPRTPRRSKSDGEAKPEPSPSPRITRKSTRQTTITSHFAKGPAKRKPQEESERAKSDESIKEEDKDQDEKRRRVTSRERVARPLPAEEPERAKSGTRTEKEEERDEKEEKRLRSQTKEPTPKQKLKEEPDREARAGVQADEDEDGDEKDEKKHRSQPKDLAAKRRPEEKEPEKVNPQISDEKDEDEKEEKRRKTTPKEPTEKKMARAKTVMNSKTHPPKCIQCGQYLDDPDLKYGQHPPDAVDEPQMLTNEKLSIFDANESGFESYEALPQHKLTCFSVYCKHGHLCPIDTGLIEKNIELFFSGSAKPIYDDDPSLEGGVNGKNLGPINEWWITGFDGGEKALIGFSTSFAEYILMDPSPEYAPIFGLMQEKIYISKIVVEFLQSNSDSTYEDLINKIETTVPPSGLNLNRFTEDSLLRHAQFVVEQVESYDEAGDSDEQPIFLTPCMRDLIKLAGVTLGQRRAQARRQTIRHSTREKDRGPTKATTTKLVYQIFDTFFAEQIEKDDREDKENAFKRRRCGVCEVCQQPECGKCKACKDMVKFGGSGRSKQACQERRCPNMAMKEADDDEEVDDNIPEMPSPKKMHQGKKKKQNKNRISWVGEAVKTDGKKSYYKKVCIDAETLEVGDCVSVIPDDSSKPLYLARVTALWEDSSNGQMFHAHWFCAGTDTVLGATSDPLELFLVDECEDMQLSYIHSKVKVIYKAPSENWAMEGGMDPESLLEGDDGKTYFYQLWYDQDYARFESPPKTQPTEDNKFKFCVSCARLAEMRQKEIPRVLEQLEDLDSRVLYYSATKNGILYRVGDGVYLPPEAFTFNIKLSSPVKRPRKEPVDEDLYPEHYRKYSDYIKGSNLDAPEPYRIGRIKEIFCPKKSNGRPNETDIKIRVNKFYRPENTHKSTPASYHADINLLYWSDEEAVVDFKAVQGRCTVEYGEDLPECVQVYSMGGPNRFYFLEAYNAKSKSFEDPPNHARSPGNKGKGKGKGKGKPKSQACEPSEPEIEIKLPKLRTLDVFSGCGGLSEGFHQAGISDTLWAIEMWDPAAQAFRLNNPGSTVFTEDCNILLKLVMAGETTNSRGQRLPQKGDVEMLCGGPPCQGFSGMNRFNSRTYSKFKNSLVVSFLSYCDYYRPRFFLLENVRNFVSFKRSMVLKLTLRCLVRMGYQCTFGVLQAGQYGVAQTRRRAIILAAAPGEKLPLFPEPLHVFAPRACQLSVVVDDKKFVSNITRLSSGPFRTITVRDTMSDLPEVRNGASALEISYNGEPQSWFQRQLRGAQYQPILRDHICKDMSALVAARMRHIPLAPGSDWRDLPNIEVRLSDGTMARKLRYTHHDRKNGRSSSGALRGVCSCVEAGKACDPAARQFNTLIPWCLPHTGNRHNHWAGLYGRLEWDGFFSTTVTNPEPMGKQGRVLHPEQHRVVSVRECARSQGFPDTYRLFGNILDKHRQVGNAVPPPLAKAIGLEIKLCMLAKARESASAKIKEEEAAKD

[2] = binned activity in either the breaklight or the SPA assay, read-out: DNMT1 BioChemical (pIC50 category) (converted)
[3] = breaklight assay and/or SPA assay, repeated experimental runs, read-out: average pIC50 against DNMT1 (converted)
[4] = binned activity in either the breaklight or the SPA assay

| EC50 [1] [µM] | IC50 (DNMT1; [2]) [µM] | IC50 (DNMT1; [3]) | DNMT1 BioChemical (pIC50 category) (DNMT1; [4]) | average pIC50 against DNMT1 (DNMT1; breaklight assay and/or SPA assay, repeated experimental runs) | SMILES |
| --- | --- | --- | --- | --- | --- |
| 1 to 31.6 | 0.316 to 1 | 0.316 to 1 µM | – | – | CCc1c(C#N)c(SCc2ccc(CO)cc2)nc(N2CCCN(C)CC2)c1C#N [Example 85, 4-Ethyl-2-((4-(hydroxymethyl)benzyl)thio)-6-(4-methyl-1,4-diazepan-1-yl)pyridine-3,5-dicarbonitrile] |
| 0.316 to 1 | – | – | D (Category D: ≥6.5) | – | CCC(=O)NCc1ccc(CSc2nc(N3CCCN(C)CC3)c(C#N)c(CC)c2C#N)cc1 [Example 87, N-(4-(((3,5-Dicyano-4-ethyl-6-(4-methyl-1,4-diazepan-1-yl)pyridin-2-yl)thio)methyl)benzyl)propionamide] |
| > 31.6 | 0.316 to 1 | – | – | – | CCc1c(C#N)c(SCc2ccc(CNC(=O)C(C)C)cc2)nc(N2CCCN(C)CC2)c1C#N [Example 88, N-(4-(((3,5-Dicyano-4-ethyl-6-(4-methyl-1,4-diazepan-1-yl)pyridin-2-yl)thio)methyl)benzyl)isobutyramide] |
| > 31.6 | 0.316 to 1 | – | – | – | CCc1c(C#N)c(SCc2ccc(CNC(=O)CC(C)C)cc2)nc(N2CCCN(C)CC2)c1C#N [Example 89, N-(4-(((3,5-Dicyano-4-ethyl-6-(4-methyl-1,4-diazepan-1-yl)pyridin-2-yl)thio)methyl)benzyl)-3-methylbutanamide] |
| > 31.6 | 0.316 to 1 | – | – | – | CCc1c(C#N)c(SCc2ccc(CNCCO)cc2)nc(N2CCCN(C)CC2)c1C#N [Example 90, 4-Ethyl-2-((4-(((2-hydroxyethyl)amino)methyl)benzyl)thio)-6-(4-methyl-1,4-diazepan-1-yl)pyridine-3,5-dicarbonitrile] |
| 1 to 31.6 | 0.316 to 1 | – | – | – | CNc1c(C#N)c(SCc2ccc(CNC(C)=O)cc2)nc(N2CCCN(C)CC2)c1C#N [Example 91, N-(4-(((3,5-Dicyano-6-(4-methyl-1,4-diazepan-1-yl)-4-(methylamino)pyridin-2-yl)thio)methyl)benzyl)acetamide] |
| 1 to 31.6 | 0.316 to 1 | ≥ 1 µM | – | – | CCc1c(C#N)c(SCc2ccc3c(c2)CCN(C(C)=O)C3)nc(N(C)C)c1C#N [Example 92, 2-(((2-Acetyl-1,2,3,4-tetrahydroisoquinolin-6-yl)methyl)thio)-6-(dimethylamino)-4-ethylpyridine-3,5-dicarbonitrile] |
| > 31.6 | 0.316 to 1 | – | – | – | CCc1c(C#N)c(SCc2ccc(C#N)cc2)nc(N2CCCN(C)CC2)c1C#N [Example 93, 2-((4-Cyanobenzyl)thio)-4-ethyl-6-(4-methyl-1,4-diazepan-1-yl)pyridine-3,5-dicarbonitrile] |
| > 31.6 | 0.316 to 1 | – | – | – | CCc1c(C#N)c(SCc2ccccc2)nc(N2CCC(NC(=O)CN)CC2)c1C#N [Example 94, 2-Amino-N-(1-(6-(benzylthio)-3,5-dicyano-4-ethylpyridin-2-yl)piperidin-4-yl)acetamide, Trifluoroacetic Acid Salt] |
| 1 to 31.6 | 0.316 to 1 | – | – | – | CCc1c(C#N)c(SCc2ccccc2)nc(N2CCC(NC(=O)C(C)(C)N)CC2)c1C#N [Example 95, 2-Amino-N-(1-(6-(benzylthio)-3,5-dicyano-4-ethylpyridin-2-yl)piperidin-4-yl)-2-methylpropanamide, Formic Acid Salt] |
| > 31.6 | – | – | D (Category D: ≥6.5) | – | CCc1c(C#N)c(SCc2ccc(CNC(=O)CCN)cc2)nc(N2CCCN(C)CC2)c1C#N [Example 96, 3-Amino-N-(4-(((3,5-dicyano-4-ethyl-6-(4-methyl-1,4-diazepan-1-yl)pyridin-2-yl)thio)methyl)benzyl)propanamide] |
| > 31.6 | – | – | D (Category D: ≥6.5) | – | CCc1c(C#N)c(SCc2ccc(CNC(=O)[C@H](C)N)cc2)nc(N2CCCN(C)CC2)c1C#N [Example 97, (S)-2-Amino-N-(4-(((3,5-dicyano-4-ethyl-6-(4-methyl-1,4-diazepan-1-yl)pyridin-2-yl)thio)methyl)benzyl)propanamide] |
| > 31.6 | – | – | D (Category D: ≥6.5) | – | CCc1c(C#N)c(SCc2ccc(CNC(=O)[C@@H](C)N)cc2)nc(N2CCCN(C)CC2)c1C#N [Example 98, (R)-2-Amino-N-(4-(((3,5-dicyano-4-ethyl-6-(4-methyl-1,4-diazepan-1-yl)pyridin-2-yl)thio)methyl)benzyl)propanamide] |
| 1 to 31.6 | 0.316 to 1 | 0.316 to 1 µM | – | – | CCNC(=O)NCc1ccc(CSc2nc(N3CCCN(C)CC3)c(C#N)c(CC)c2C#N)cc1 [Example 99, 1-(4-(((3,5-Dicyano-4-ethyl-6-(4-methyl-1,4-diazepan-1-yl)pyridin-2-yl)thio)methyl)benzyl)-3-ethylurea] |
| > 31.6 | 0.316 to 1 | – | – | – | CCc1c(C#N)c(SCc2ccc(CNC(=O)Nc3ccccc3)cc2)nc(N2CCCN(C)CC2)c1C#N [Example 100, 1-(4-(((3,5-Dicyano-4-ethyl-6-(4-methyl-1,4-diazepan-1-yl)pyridin-2-yl)thio)methyl)benzyl)-3-phenylurea] |
| 0.316 to 1 | – | – | D (Category D: ≥6.5) | – | CSc1c(C#N)c(SCc2ccc(CNC(C)=O)cc2)nc(N2CCCN(C)CC2)c1C#N [Example 101, N-(4-(((3,5-Dicyano-6-(4-methyl-1,4-diazepan-1-yl)-4-(methylthio)pyridin-2-yl)thio)methyl)benzyl)acetamide] |
| > 31.6 | 1 to 31.6 | ≥ 1 µM | – | – | CCc1c(C#N)c(SCc2ccc(/C=C/C(=O)O)cc2)nc(N(C)C)c1C#N [Example 102, (E)-3-(4-(((3,5-Dicyano-6-(dimethylamino)-4-ethylpyridin-2-yl)thio)methyl)phenyl)acrylic acid, Trifluoroacetic Acid Salt] |
| 1 to 31.6 | 1 to 31.6 | ≥ 1 µM | – | – | CCc1c(C#N)c(SCc2ccc(CNC(C)=O)cc2)nc(N(C)CCO)c1C#N [Example 103, N-(4-(((3,5-Dicyano-4-ethyl-6-((2-hydroxyethyl)(methyl)amino)pyridin-2-yl)thio)methyl)benzyl)acetamide] |
| 1 to 31.6 | – | – | D (Category D: ≥6.5) | – | CCOc1c(C#N)c(SCc2ccc(CNC(C)=O)cc2)nc(N2CCCN(C)CC2)c1C#N [Example 105, N-(4-(((3,5-Dicyano-4-ethoxy-6-(4-methyl-1,4-diazepan-1-yl)pyridin-2-yl)thio)methyl)benzyl)acetamide] |
| 0.316 to 1 | 1 to 31.6 | ≥ 1 µM | – | – | CCc1c(C#N)c(SC(C(N)=O)c2ccccc2)nc(N2CCCN(CC(=O)OC)CC2)c1C#N (stereo not drawn) [Example 108, Methyl 2-[4-(6-{[carbamoyl(phenyl)methyl]sulfanyl}-3,5-dicyano-4-ethylpyridin-2-yl)-1,4-diazepan-1-yl]acetate] |
| < 0.316 | 0.316 to 1 | ≥ 1 µM | – | – | CN1CCN(c2nc(SC(C(N)=O)c3ccccc3)c(C#N)c(C3CC3)c2C#N)CCC1=O (stereo not drawn) [Example 109, 2-{[3,5-Dicyano-4-cyclopropyl-6-(4-methyl-5-oxo-1,4-diazepan-1-yl)pyridin-2-yl]sulfanyl}-2-phenylacetamide] |
| 1 to 31.6 | 0.316 to 1 | 0.316 to 1 µM | – | – | N#Cc1c(SC(C(N)=O)c2ccccc2)nc(N2CCNC(=O)CC2)c(C#N)c1C1CC1 (stereo not drawn) [Example 110, 2-{[3,5-Dicyano-4-cyclopropyl-6-(5-oxo-1,4-diazepan-1-yl)pyridin-2-yl]sulfanyl}-2-phenylacetamide] |
| < 0.316 | 0.316 to 1 | – | – | – | CCc1c(C#N)c(SC(C(N)=O)c2ccccc2)nc(N2CCC(=O)N(C)CC2)c1C#N (stereo not drawn) [Example 111, 2-{[3,5-Dicyano-4-ethyl-6-(4-methyl-5-oxo-1,4-diazepan-1-yl)pyridin-2-yl]sulfanyl}-2-phenylacetamide] |
| < 0.316 | – | 0.2 µM | D (Category D: ≥6.5) | > 6.5 | N#Cc1c(SC(C(N)=O)c2ccccc2)nc(N2CC[C@H](N)C2)c(C#N)c1C1CC1 (stereo partly drawn) [Example 115, 2-({6-[(3S)-3-Aminopyrrolidin-1-yl]-3,5-dicyano-4-cyclopropylpyridin-2-yl}sulfanyl)-2-phenylacetamide] |
| < 0.316 | – | – | D (Category D: ≥6.5) | – | CCc1c(C#N)c(SC(C(N)=O)c2ccccc2)nc(N2CCC3(CCCNC3)CC2)c1C#N (stereo not drawn) [Example 116, 2-((3,5-Dicyano-4-ethyl-6-(2,9-diazaspiro[5.5]undecan-9-yl)pyridin-2-yl)thio)-2-phenylacetamide] |
| < 0.316 | 0.316 to 1 | 0.316 to 1 µM | – | – | CCc1c(C#N)c(SC(C(N)=O)c2ccccc2)nc(N2CCCN3CCCC3C2)c1C#N (stereo not drawn) [Example 117, 2-((3,5-Dicyano-4-ethyl-6-(hexahydro-1H-pyrrolo[1,2-a][1,4]diazepin-2(3H)-yl)pyridin-2-yl)thio)-2-phenylacetamide] |
| < 0.316 | 0.316 to 1 | 0.316 to 1 µM and 0.398 µM | – | – | CCc1c(C#N)c(SC(C(N)=O)c2ccccc2)nc(N2CCC3(CCCN(CC4CC4)C3)CC2)c1C#N (stereo not drawn) [Example 119, 2-((3,5-Dicyano-6-(2-(cyclopropylmethyl)-2,9-diazaspiro[5.5]undecan-9-yl)-4-ethylpyridin-2-yl)thio)-2-phenylacetamide hydrochloride] |
| < 0.316 | 0.316 to 1 | 0.316 to 1 µM | – | – | CCc1c(C#N)c(SC(C(N)=O)c2ccccc2)nc(N2CCN(CCCN(C)C)CC2)c1C#N (stereo not drawn) [Example 120] |
